Test [1] deals with 5-aminovalerate transaminase from Clostridium viride. Particulars: Barker et al., 1987; cited from earlier work.
In test [2] the test system is ω-transaminase from Chromobacterium violaceum (SEQ ID NO: 8). Particulars: Kaulmann et al., 2007; cited from earlier work.
Test [3] has as its system 4-aminobubyrate:2-oxoglutarate transaminase from Streptomyces griseus. Particulars: Yonaha et al., 1985; cited from earlier work.
Test [4] has as its system diamine transaminase from E. coli strain B. As to conditions: Kim, 1964; cited from earlier work.
In test [5] the target is gene product of ygjG (Escherichia coli, UniProt P42588). Particulars: Samsonova et al., 2003; cited from earlier work.
For test [6], the system named is Chromobacterium violaceum ω-transaminase (SEQ ID NO: 8). Nature of the test: ω-transaminase enzyme activity assay, amine substrate plus pyruvate to L-alanine (cell free extract). The format is biochemical. As to conditions: reverse direction, 10 mM substrate, 10 mM pyruvate, 100 μM pyridoxyl 5′ phosphate, pH 7.5, 25° C., 4 h, L-alanine by RP-HPLC. On the procedure:
A nucleotide sequence encoding an N-terminal His-tag was added to the genes from Chromobacterium violaceum and Rhodobacter sphaeroides encoding the ω-transaminases of SEQ ID NOs: 8 and 10 respectively (see FIG. 10) such that N-terminal HIS tagged ω-transaminases could be produced. Each of the resulting modified genes was cloned into a pET21a expression vector under control of the T7 promoter and each expression vector was transformed into a BL21[DE3] E. coli host. The resulting recombinant E. coli strains were cultivated at 37° C. in a 250 mL shake flask culture containing 50 mL LB media and antibiotic selection pressure, with shaking at 230 rpm. Each culture was induced overnight at 16° C. using 1 mM IPTG.
(§1) The pellet from each induced shake flask culture was harvested via centrifugation. Each pellet was resuspended and lysed via sonication. The cell debris was separated from the supernatant via centrifugation and the cell free extract was used immediately in enzyme activity assays.
Enzyme activity assays in the reverse direction (i.e., 5-aminopentanoate to glutarate semialdehyde) were performed in a buffer composed of a final concentration of 50 mM HEPES buffer (pH=7.5), 10 mM 5-aminopentanoate, 10 mM pyruvate and 100 μM pyridoxyl 5′ phosphate. Each enzyme activity assay reaction was initiated by adding cell free extract of the ω-transaminase gene product or the empty vector control to the assay buffer containing the 5-aminopentanoate and incubated at 25° C. for 4 h, with shaking at 250 rpm. The formation of L-alanine from pyruvate was quantified via RP-HPLC.
(§2) A nucleotide sequence encoding an N-terminal His-tag was added to the Chromobacterium violaceum, Pseudomonas aeruginosa, Pseudomonas syringae, Rhodobacter sphaeroide, Escherichia coli and Vibrio fluvialis genes encoding the ω-transaminases of SEQ ID NOs: 8-13, respectively (see FIG. 10) such that N-terminal HIS tagged ω-transaminases could be produced. The modified genes were cloned into a pET21a expression vector under the T7 promoter. Each expression vector was transformed into a BL21[DE3] E. coli host. Each resulting recombinant E. coli strain were cultivated at 37° C. in a 250 mL shake flask culture containing 50 mL LB media and antibiotic selection pressure, with shaking at 230 rpm. Each culture was induced overnight at 16° C. using 1 mM IPTG.
(§3) Enzyme activity assays in the reverse direction (i.e., 5-aminopentanol to 5-oxopentanol) were performed in a buffer composed of a final concentration of 50 mM HEPES buffer (pH=7.5), 10 mM 5-aminopentanol, 10 mM pyruvate, and 100 μM pyridoxyl 5′ phosphate. Each enzyme activity assay reaction was initiated by adding cell free extract of the ω-transaminase gene product or the empty vector control to the assay buffer containing the 5-aminopentanol and then incubated at 25° C. for 4 h, with shaking at 250 rpm. The formation of L-alanine was quantified via RP-HPLC.
as §2, with “and” for “Rhodobacter sphaeroide,”, “coli” for “coli and Vibrio fluvialis”, “8-10 and 12,” for “8-13,”
Enzyme activity assays in the reverse direction (i.e., cadaverine to 5-aminopentanal) were performed in a buffer composed of a final concentration of 50 mM HEPES buffer (pH=7.5), 10 mM cadaverine, 10 mM pyruvate, and 100 μM pyridoxyl 5′ phosphate. […]

The subject of test [7] is Pseudomonas aeruginosa ω-transaminase (SEQ ID NO: 9). Described as above. The format is biochemical. As to conditions: reverse direction, 10 mM substrate, 10 mM pyruvate, 100 μM pyridoxyl 5′ phosphate, pH 7.5, 25° C., 4 h, L-alanine by RP-HPLC. On the procedure:
as §2, §1, §3
as §2, with “and” for “Rhodobacter sphaeroide,”, “coli” for “coli and Vibrio fluvialis”, “8-10 and 12,” for “8-13,”
(§4) Enzyme activity assays in the reverse direction (i.e., cadaverine to 5-aminopentanal) were performed in a buffer composed of a final concentration of 50 mM HEPES buffer (pH=7.5), 10 mM cadaverine, 10 mM pyruvate, and 100 μM pyridoxyl 5′ phosphate. Each enzyme activity assay reaction was initiated by adding cell free extract of the ω-transaminase gene product or the empty vector control to the assay buffer containing the cadaverine and then incubated at 25° C. for 4 h, with shaking at 250 rpm. The formation of L-alanine was quantified via RP-HPLC.
(§5) The activity of the N-terminal His-tagged ω-transaminases of SEQ ID NOs: 8-13 (see Example 3, and FIG. 10) for converting 1-aminopentane to pentanal was assayed using a buffer composed of a final concentration of 50 mM HEPES buffer (pH=7.5), 10 mM 1-aminopentane, 10 mM pyruvate and 100 μM pyridoxyl 5′ phosphate. Each enzyme activity assay reaction was initiated by adding a cell free extract of the ω-transaminase or the empty vector control to the assay buffer containing the 1-aminopentane then incubated at 25° C. for 4 h, with shaking at 250 rpm. The formation of L-alanine was quantified via RP-HPLC.
The activity of the N-terminal His-tagged ω-transaminases of SEQ ID NOs: 8-13 (see Example 3, and FIG. 10) for converting 1-aminoheptane to heptanal was assayed using a buffer composed of a final concentration of 50 mM HEPES buffer (pH=7.5), 10 mM 1-aminoheptane, 10 mM pyruvate and 100 μM pyridoxyl 5′ phosphate. […]

Test [8] has as its system Pseudomonas syringae ω-transaminase (SEQ ID NO: 10). The test is described as above. As to conditions: reverse direction, 10 mM substrate, 10 mM pyruvate, 100 μM pyridoxyl 5′ phosphate, pH 7.5, 25° C., 4 h, L-alanine by RP-HPLC. The format is biochemical. The method, then:
as §2, §1, §3
as §2, with “and” for “Rhodobacter sphaeroide,”, “coli” for “coli and Vibrio fluvialis”, “8-10 and 12,” for “8-13,”
as §4
as §5, with “8, 10-13” for “8-13”, “N5-acetyl-1,5-diaminopentane” for “1-aminopentane”, “N5-acetyl-5-aminopentanal” for “pentanal”, “N5-acetyl-1,5-diaminopentane,” for “1-aminopentane,”
(§6) The activity of the N-terminal His-tagged ω-transaminases of SEQ ID NOs: 8-13 (see Example 3, and FIG. 10) for converting 1-aminopentane to pentanal was assayed using a buffer composed of a final concentration of 50 mM HEPES buffer (pH=7.5), 10 mM 1-aminopentane, 10 mM pyruvate and 100 μM pyridoxyl 5′ phosphate. […]

For test [9], the target named is T1, Escherichia coli ω-transaminase (SEQ ID NO: 12) (Escherichia coli, UniProt P42588).
T1 construct: His-tag (N); made in house; host or cells: E. coli BL21[DE3], pET21a
The description is as above. The format is biochemical. Particulars: reverse direction, 10 mM substrate, 10 mM pyruvate, 100 μM pyridoxyl 5′ phosphate, pH 7.5, 25° C., 4 h, L-alanine by RP-HPLC. On the procedure:
as §2, §1, §3
as §2, with “and” for “Rhodobacter sphaeroide,”, “coli” for “coli and Vibrio fluvialis”, “8-10 and 12,” for “8-13,”
as §4
as §5, with “8, 10-13” for “8-13”, “N5-acetyl-1,5-diaminopentane” for “1-aminopentane”, “N5-acetyl-5-aminopentanal” for “pentanal”, “N5-acetyl-1,5-diaminopentane,” for “1-aminopentane,”
as §6

In test [10] the test system is Segniliparus rotundus carboxylate reductase (SEQ ID NO: 7), enhanced by the gene product of sfp. The test can be described thus: carboxylate reductase enzyme activity assay, NADPH consumption at 340 nm. The class given is biochemical. Particulars: SEQ ID NO 7 with sfp; 2 mM substrate, 10 mM MgCl2, 1 mM ATP, 1 mM NADPH, pH 7.5, room temperature, 20 min; absorbance at 340 nm. The method, then:
(§7) A nucleotide sequence encoding a His-tag was added to the genes from Mycobacterium marinum, Mycobacterium smegmatis, Segniliparus rugosus, Mycobacterium massiliense, and Segniliparus rotundus that encode the carboxylate reductases of SEQ ID NOs: 2-4, 6 and 7, respectively (GenBank Accession Nos. ACC40567.1, ABK71854.1, EFV11917.1, EIV11143.1, and ADG98140.1, respectively) (see FIG. 10) such that N-terminal HIS tagged carboxylate reductases could be produced. Each of the modified genes was cloned into a pET Duet expression vector alongside a sfp gene encoding a His-tagged phosphopantetheine transferase from Bacillus subtilis, both under control of the T7 promoter. Each expression vector was transformed into a BL21[DE3] E. coli host along with the expression vectors from Example 3. Each resulting recombinant E. coli strain was cultivated at 37° C. in a 250 mL shake flask culture containing 50 mL LB media and antibiotic selection pressure, with shaking at 230 rpm. Each culture was induced overnight at 37° C. using an auto-induction media.
The pellet from each induced shake flask culture was harvested via centrifugation. Each pellet was resuspended and lysed via sonication. The cell debris was separated from the supernatant via centrifugation. […]
Enzyme activity (i.e., 5-hydroxypentanoate to 5-hydroxypentanal) assays were performed in triplicate in a buffer composed of a final concentration of 50 mM HEPES buffer (pH=7.5), 2 mM 5-hydroxypentanal, 10 mM MgCl2, 1 mM ATP, and 1 mM NADPH. […] The consumption of NADPH was monitored by absorbance at 340 nm.
The N-terminal His-tagged carboxylate reductase of SEQ ID NO 7 (see Example 2 and FIG. 10) was assayed using glutarate semialdehyde as substrate. […] The consumption of NADPH was monitored by absorbance at 340 nm.
The N-terminal His-tagged carboxylate reductase of SEQ ID NO 2-4 and 7 (see Example 2 and FIG. 10) was assayed using glutarate methyl ester as substrate. […] The consumption of NADPH was monitored by absorbance at 340 nm.

Test [11] deals with T2, Mycobacterium marinum carboxylate reductase (SEQ ID NO: 2), enhanced by the gene product of sfp (Mycobacterium marinum, UniProt B2HN69).
T2 construct: His-tag (N); made in house; host or cells: E. coli BL21[DE3], pET Duet
The test is described as above. The format is biochemical. Particulars: SEQ ID NO 2 with sfp; 2 mM substrate, 10 mM MgCl2, 1 mM ATP, 1 mM NADPH, pH 7.5, room temperature, 20 min; absorbance at 340 nm. On the procedure:
as §7
(§8) The pellet from each induced shake flask culture was harvested via centrifugation. Each pellet was resuspended and lysed via sonication. The cell debris was separated from the supernatant via centrifugation. The carboxylate reductases and phosphopantetheine transferase were purified from the supernatant using Ni-affinity chromatography, diluted 10-fold into 50 mM HEPES buffer (pH=7.5) and concentrated via ultrafiltration.
(§9) Enzyme activity (i.e., 5-hydroxypentanoate to 5-hydroxypentanal) assays were performed in triplicate in a buffer composed of a final concentration of 50 mM HEPES buffer (pH=7.5), 2 mM 5-hydroxypentanal, 10 mM MgCl2, 1 mM ATP, and 1 mM NADPH. Each enzyme activity assay reaction was initiated by adding purified carboxylate reductase and phosphopantetheine transferase or the empty vector control to the assay buffer containing the 5-hydroxypentanoate and then incubated at room temperature for 20 min. The consumption of NADPH was monitored by absorbance at 340 nm.
(§10) The N-terminal His-tagged carboxylate reductase of SEQ ID NO 2-4 and 7 (see Example 2 and FIG. 10) was assayed using glutarate methyl ester as substrate. The enzyme activity assay was performed in triplicate in a buffer composed of a final concentration of 50 mM HEPES buffer (pH=7.5), 2 mM glutarate methyl ester, 10 mM MgCl2, 1 mM ATP and 1 mM NADPH. The enzyme activity assay reaction was initiated by adding purified carboxylate reductase and phosphopantetheine transferase or the empty vector control to the assay buffer containing the glutarate semialdehyde and then incubated at room temperature for 20 min. The consumption of NADPH was monitored by absorbance at 340 nm.

Test [12] has as its system Mycobacterium smegmatis carboxylate reductase (SEQ ID NO: 3), enhanced by the gene product of sfp. The description is as above. The class given is biochemical. As to conditions: SEQ ID NO 3 with sfp; 2 mM substrate, 10 mM MgCl2, 1 mM ATP, 1 mM NADPH, pH 7.5, room temperature, 20 min; absorbance at 340 nm. On the procedure:
as §7, §8, §9, §10

Test [13] concerns Segniliparus rugosus carboxylate reductase (SEQ ID NO: 4), enhanced by the gene product of sfp. The description is as above. The format is biochemical. As to conditions: SEQ ID NO 4 with sfp; 2 mM substrate, 10 mM MgCl2, 1 mM ATP, 1 mM NADPH, pH 7.5, room temperature, 20 min; absorbance at 340 nm. The method, then:
as §7, §8, §9, §10

T2 sequence (B2HN69 whole entry): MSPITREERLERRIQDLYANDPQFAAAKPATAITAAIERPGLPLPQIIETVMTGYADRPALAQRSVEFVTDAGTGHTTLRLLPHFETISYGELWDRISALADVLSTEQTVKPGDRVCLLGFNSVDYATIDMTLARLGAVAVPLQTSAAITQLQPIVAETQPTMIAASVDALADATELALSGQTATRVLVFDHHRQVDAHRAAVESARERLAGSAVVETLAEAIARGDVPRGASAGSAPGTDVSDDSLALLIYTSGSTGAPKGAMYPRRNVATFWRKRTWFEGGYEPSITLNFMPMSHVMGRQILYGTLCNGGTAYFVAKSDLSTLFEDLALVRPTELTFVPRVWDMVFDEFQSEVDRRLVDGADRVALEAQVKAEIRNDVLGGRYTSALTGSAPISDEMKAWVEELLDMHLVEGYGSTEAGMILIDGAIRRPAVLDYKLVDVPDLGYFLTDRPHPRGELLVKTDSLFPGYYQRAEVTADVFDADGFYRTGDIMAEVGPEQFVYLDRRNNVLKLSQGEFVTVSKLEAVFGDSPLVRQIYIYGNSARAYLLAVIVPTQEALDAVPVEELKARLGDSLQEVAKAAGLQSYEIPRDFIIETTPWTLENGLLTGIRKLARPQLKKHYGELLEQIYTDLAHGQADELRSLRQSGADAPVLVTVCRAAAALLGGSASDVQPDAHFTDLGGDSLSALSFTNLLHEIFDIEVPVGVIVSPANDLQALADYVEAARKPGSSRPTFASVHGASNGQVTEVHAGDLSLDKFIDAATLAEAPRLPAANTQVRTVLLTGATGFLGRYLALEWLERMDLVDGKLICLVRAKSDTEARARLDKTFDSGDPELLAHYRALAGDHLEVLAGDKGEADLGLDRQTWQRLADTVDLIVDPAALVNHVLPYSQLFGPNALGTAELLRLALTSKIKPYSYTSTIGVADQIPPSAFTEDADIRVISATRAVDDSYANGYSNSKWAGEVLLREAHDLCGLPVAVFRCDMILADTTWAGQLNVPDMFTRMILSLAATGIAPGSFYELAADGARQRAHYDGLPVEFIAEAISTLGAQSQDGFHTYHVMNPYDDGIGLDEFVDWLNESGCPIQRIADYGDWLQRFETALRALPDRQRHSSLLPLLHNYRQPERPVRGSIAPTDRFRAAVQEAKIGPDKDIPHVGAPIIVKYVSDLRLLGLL
gene product of ygjG, sequence (P42588 whole entry): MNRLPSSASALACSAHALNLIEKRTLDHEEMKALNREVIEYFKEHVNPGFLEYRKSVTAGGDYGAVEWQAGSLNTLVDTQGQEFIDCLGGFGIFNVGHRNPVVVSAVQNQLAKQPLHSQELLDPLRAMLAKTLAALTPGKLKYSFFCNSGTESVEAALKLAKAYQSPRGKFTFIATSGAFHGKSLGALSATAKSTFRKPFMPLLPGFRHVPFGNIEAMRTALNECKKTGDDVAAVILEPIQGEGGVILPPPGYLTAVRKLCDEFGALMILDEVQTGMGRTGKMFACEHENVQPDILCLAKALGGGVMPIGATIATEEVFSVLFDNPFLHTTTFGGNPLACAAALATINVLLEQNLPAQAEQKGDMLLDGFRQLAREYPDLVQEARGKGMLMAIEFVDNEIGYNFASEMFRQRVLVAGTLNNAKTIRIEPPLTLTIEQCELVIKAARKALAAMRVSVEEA
T1 sequence (P42588 whole entry): as above

In the case of `NCCCCCC(=O)O` [6-aminohexanoate], the “activity for the conversion to adipate semialdehyde” value in [1] and in [3] was “demonstrated analogous activity” each time. Further, the “accepted as amino donor” value in test [2] is “demonstrated analogous activity”.
`NCCCCCN` [cadaverine]: in test [4], the “activity for the substrate” value is recorded as “demonstrated activity”. Further, the “accepted as diamine substrate” value in test [5] is “accepts”. For the same compound, the “accepted as substrate as confirmed against the empty vector control” value in [6], in test [7], in [8] and in test [9] was “accepted” throughout.
As to `COC(=O)CCCC(=O)O` [glutarate methyl ester], the “accepted as substrate as confirmed against the empty vector control” value in test [10], in test [11], in [12] and in test [13] was “accepted” in each case.

These data come from US9920339B2, “Methods, reagents and cells for biosynthesizing compounds” (INVISTA North America S.á r.l., priority 2014, dated 2018).
